Experimental data reported in US20250375492A1, “MONASCUS PILOSUS STRAIN, COMPOSITION FOR PREVENTING OR TREATING NONALCOHOLIC FATTY LIVER DISEASE AND USE OF SAID MONASCUS PILOSUS” (SUNWAY BIOTECH CO., LTD., priority 2024, published 2025).

System: gut microbiota of nonalcoholic fatty liver mice
Assay: Gut microbiota analysis (full-length 16S sequencing) in nonalcoholic fatty liver mice
Assay type: in vivo, C57BL/6J mice
Conditions: compared with the HFD group; L008, H008 and Msol groups; FIG. 9
Protocol: The experiment used 7-week-old male C57BL/6J strain mice purchased from the National Laboratory Animal Center. The initial body weight was about 23 g, with 12 mice per group. They were housed at 60% relative humidity, room temperature 25±1° C., with a 12-hour light cycle (8:00-20:00). The experiment lasted for 22 weeks, during which food and water were provided ad libitum. Body weight, food intake, and water consumption were measured weekly.
Embodiment 4 uses a high-fat feed to induce a nonalcoholic fatty liver animal model. The animal experiment lasted for 22 weeks. Animal test feed was prepared according to the formula of Research Diets (New Brunswick, NJ, USA) for D12450B and D12492. The grouping is as follows: • i. […]
Total genomic DNA was extracted from samples (QIAamp PowerFecal DNA, Qiagen). DNA concentration was determined using a Qubit 4.0 fluorometer (Thermo Scientific) and adjusted to 1 ng/μL. […] PCR reactions were performed using KAPA HiFi HotStart ReadyMix (Roche): 95° C., 3 minutes; 20-27 cycles (sample-dependent): 95° C., 30 seconds, 57° C., 30 seconds, 72° C., 60 seconds; 72° C. for 5 minutes, and final storage at 4° C. PCR products were monitored on 1% agarose gel. […]
Sample data were demultiplexed from the raw data based on Barcode sequences and PCR amplification primer sequences. […] The sequences with primers removed were used as QIIME2 DADA2 Input Reads. […]

## Monascinol [Msol]
  microbial population (abundance) of Blautia in the intestine: increase
  microbial population (abundance) of Intestinimonas in the intestine: increase
